Results taken from patent US20250144067A1, “PERSONALIZED STARVATION THERAPY FOR CANCER” (Faeth Therapeutics, Inc., priority 2021, published 2025).
Structures can show the parent of a compound that is named as a salt. Where two headings read alike, the source gives them in different places. Peptide text beside a SMILES is read from it.

Assays:
[1] = test system: NCI-H292 lung cancer cells; assay: FDA drug screening, complete media vs cholesterol-free media with simvastatin (TABLE 2); type: cell-based, human
[2] = test system: NCI-H292 lung cancer cells; assay: FDA drug screening, complete media vs cholesterol-free media without statin (TABLE 1); type: cell-based, human
[3] = NCI-H292 cells, FDA drug library screen, cholesterol-free media with simvastatin 0.04 μM
[4] = NCI-H292 cells, FDA drug library screen, complete media
[5] = complete media vs cholesterol-free media + simvastatin (0.04 μM), >0 enhanced anti-cancer activity, about 0 neutral, <0 antagonist
[6] = NCI-H292 cells, cholesterol-free media without statin, FDA drug library screen
[7] = NCI-H292 cells, complete media, FDA drug library screen
[8] = complete vs cholesterol-free media, >0 enhanced anti-cancer activity, about 0 neutral, <0 antagonist
[9] = NCI-H292 cells, cholesterol-free media with simvastatin 0.04 μM, FDA drug library screen (TABLE 2)
[10] = NCI-H292 cells, complete media, FDA drug library screen (TABLE 2)
[11] = complete media minus cholesterol-free media + simvastatin (0.04 μM), >0 enhanced anti-cancer activity, about 0 neutral, <0 antagonist
[12] = Complete minus Cholesterol-free, >0 enhanced anti-cancer activity, about 0 neutral, <0 antagonist
[13] = NCI-H292 cells, FDA library drug in cholesterol-free media with simvastatin 0.04 μM
[14] = NCI-H292 cells, FDA library drug in complete media
[15] = NCI-H292 cells, cholesterol-free media without statin
[16] = Complete minus Cholesterol-free, greater than 0 enhanced anti-cancer activity, about 0 neutral, below 0 antagonists
[17] = NCI-H292 cells in cholesterol-free media without statin
[18] = NCI-H292 cells in complete media
[19] = complete media minus cholesterol-free media + simvastatin, […]
[20] = Complete minus Cholesterol-free, […]
[21] = NCI-H292 cells, cholesterol-free media with simvastatin 0.04 μM, cell growth value in FDA drug screen
[22] = NCI-H292 cells, complete media, cell growth value in FDA drug screen
[23] = complete media minus cholesterol-free media + simvastatin, >0 enhanced anti-cancer activity, about 0 neutral, <0 antagonist
[24] = complete vs cholesterol-free media, greater than 0 enhanced anti-cancer activity, about 0 neutral, below 0 antagonists
[25] = NCI-H292 cells, drug in cholesterol-free media with simvastatin 0.04 μM
[26] = NCI-H292 cells, drug in complete media
[27] = complete media vs cholesterol-free media + simvastatin (0.04 μM), […]
[28] = complete vs cholesterol-free media, […]

Saquinavir (Mesylate)
Cholesterol-free media + simvastatin (0.04 μM) [1, 3]: 2.052
Complete Media [1, 4]: 1.925
Difference [1, 5]: −0.13
Cholesterol-free [2, 6]: 0.7536
Complete [2, 7]: 1.206
Difference [2, 8]: 0.45

O=C(Nc1ccc(Cl)cc1)Nc1ccc(Cl)c(Cl)c1 [Triclocarban]
Cholesterol-free media + simvastatin (0.04 μM) [1, 9]: 1.029
Complete Media [1, 10]: 0.9601
Difference [1, 11]: −0.07
Difference [2, 12]: −0.05
Cholesterol-free [2, 6]: 0.8072
Complete [2, 7]: 0.7602

COc1cc2c(cc1OC)[C@@H]1Cc3ccc(OC)c(OC)c3CN1CC2 [Rotundine]
Cholesterol-free media + simvastatin (0.04 μM) [1, 13]: 1.094
Complete Media [1, 14]: 0.8277
Difference [1, 5]: −0.27
Difference [2, 12]: −0.21
Cholesterol-free [2, 15]: 1.07
Complete ([2]; NCI-H292 cells, complete media): 0.8588

Cc1cccc(Cc2c[nH]cn2)c1C [Detomidine (hydrochloride)]
Cholesterol-free media + simvastatin (0.04 μM) [1, 3]: 1.019
Complete Media [1, 4]: 0.9319
Difference [1, 5]: −0.09
Difference [2, 16]: −0.47
Cholesterol-free [2, 17]: 1.106
Complete [2, 18]: 0.6322

N=C(N)NCCCC[C@@H]1NC(=O)CCSSC[C@@H](C(N)=O)NC(=O)[C@@H]2CCCN2C(=O)[C@H](Cc2c[nH]c3ccccc23)NC(=O)[C@H](CC(=O)O)NC(=O)CNC1=O [Eptifibatide] (HELM PEPTIDE1{[O=C(CCS[*:3])[*:2]].[N=C(N)NCCCC[C@H](N[*:1])C(=O)[*:2]].G.D.W.P.C.[am]}$PEPTIDE1,PEPTIDE1,1:R3-7:R3$$$V2.0)
Cholesterol-free media + simvastatin (0.04 μM) [1, 3]: 0.8438
Complete Media [1, 4]: 0.9929
Difference [1, 19]: 0.15
Difference [2, 20]: −1.01
Cholesterol-free [2, 17]: 1.974
Complete [2, 18]: 0.9607

C=CCOc1ccccc1OCC(O)CNC(C)C (centres unmarked) [Oxprenolol (hydrochloride)]
Cholesterol-free media + simvastatin (0.04 μM) [1, 21]: 0.8718
Complete Media [1, 22]: 0.9135
Difference [1, 23]: 0.04
Cholesterol-free [2, 6]: 1.177
Complete [2, 7]: 1.262
Difference [2, 8]: 0.09

CCCc1c2oc(C(=O)O)cc(=O)c2cc2c(=O)cc(C(=O)O)n(CC)c12 [Nedocromil]
Cholesterol-free media + simvastatin (0.04 μM) [1, 13]: 1.951
Complete Media [1, 14]: 1.336
Difference [1, 5]: −0.61
Cholesterol-free [2, 6]: 1.678
Complete [2, 7]: 1.893
Difference [2, 8]: 0.22

CCCC(=O)OCOC(=O)C1=C(C)NC(C)=C(C(=O)OC)C1c1cccc(Cl)c1Cl (centres unmarked) [Clevidipine]
Cholesterol-free media + simvastatin (0.04 μM) [1, 21]: 0.8061
Complete Media [1, 22]: 0.9036
Difference [1, 23]: 0.10
Cholesterol-free [2, 15]: 1.292
Complete ([2]; NCI-H292 cells, complete media): 0.9289
Difference [2, 24]: −0.36

O=C1OC(c2ccc(O)cc2)(c2ccc(O)cc2)c2ccccc21 [Phenolphthalein]
Cholesterol-free media + simvastatin (0.04 μM) [1, 25]: 1.026
Complete Media [1, 26]: 0.7863
Difference [1, 5]: −0.24
Difference [2, 12]: −0.30
Cholesterol-free [2, 15]: 1.17
Complete ([2]; NCI-H292 cells, complete media): 0.8721

N#Cc1ccc([C@H]2CCc3cncn32)c(F)c1 [Osilodrostat]
Cholesterol-free media + simvastatin (0.04 μM) [1, 3]: 1.26
Difference [1, 5]: −0.11
Difference [2, 16]: −0.71
Cholesterol-free [2, 17]: 1.647
Complete [2, 18]: 0.935

Cc1cc2cc3c(C)cc(=O)oc3c(C)c2o1 [Trioxsalen]
Cholesterol-free media + simvastatin (0.04 μM) [1, 3]: 1.056
Complete Media [1, 4]: 0.9717
Difference [1, 5]: −0.08
Cholesterol-free [2, 6]: 1.107
Complete [2, 7]: 1.239
Difference [2, 8]: 0.13

C[C@H](CCC(=O)O)[C@H]1CC[C@H]2[C@@H]3[C@@H](O)C[C@@H]4C[C@H](O)CC[C@]4(C)[C@H]3CC[C@]12C [Ursodiol]
Cholesterol-free media + simvastatin (0.04 μM) [1, 3]: 1.413
Complete Media [1, 4]: 1.314
Difference [1, 5]: −0.10
Cholesterol-free [2, 15]: 1.392
Complete ([2]; NCI-H292 cells, complete media): 0.9832
Difference [2, 24]: −0.41

OC[C@H]1O[C@@H](c2ccc(Cl)c(Cc3ccc(O[C@H]4CCOC4)cc3)c2)[C@H](O)[C@@H](O)[C@@H]1O [Empagliflozin]
Cholesterol-free media + simvastatin (0.04 μM) [1, 3]: 0.9749
Complete Media [1, 4]: 0.8261
Difference [1, 5]: −0.15
Cholesterol-free [2, 6]: 0.7937
Complete [2, 7]: 1.112
Difference [2, 8]: 0.32

COc1ccccc1OCC(O)CN1CCN(CC(=O)Nc2c(C)cccc2C)CC1 (centres unmarked) [Ranolazine]
Cholesterol-free media + simvastatin (0.04 μM) [1, 3]: 1.311
Complete Media [1, 4]: 1.162
Difference [1, 5]: −0.15
Cholesterol-free [2, 15]: 1.774
Complete ([2]; NCI-H292 cells, complete media): 1.359
Difference [2, 24]: −0.41

Guanabenz (Acetate)
Cholesterol-free media + simvastatin (0.04 μM) [1]: 1.185
Complete Media [1]: 0.9697
Difference [1]: −0.22
Cholesterol-free [2]: 0.8753
Complete [2]: 0.6073
Difference [2]: −0.27

CCCc1nc(C)c2c(=O)[nH]c(-c3cc(S(=O)(=O)N4CCN(CC)CC4)ccc3OCC)nn12 [Vardenafil (hydrochloride)]
Cholesterol-free media + simvastatin (0.04 μM) [1, 21]: 1.201
Complete Media [1, 22]: 1.248
Difference [1, 23]: 0.05
Cholesterol-free [2, 15]: 1.352
Complete ([2]; NCI-H292 cells, complete media): 0.985
Difference [2, 24]: −0.37

CCC1(c2ccccc2)NC(=O)N(C)C1=O (centres unmarked) [Mephenytoin]
Cholesterol-free media + simvastatin (0.04 μM) [1, 13]: 1.274
Complete Media [1, 14]: 1.003
Difference [1, 5]: −0.27
Difference [2, 16]: −0.62
Cholesterol-free [2, 17]: 1.604
Complete [2, 18]: 0.9878

OC[C@H]1OC(O)[C@H](O)[C@@H](O)[C@@H]1O (stereo partly drawn) [D-Glucose]
Cholesterol-free media + simvastatin (0.04 μM) [1, 25]: 0.822
Complete Media [1, 26]: 0.5991
Difference [1, 5]: −0.22
Difference [2, 12]: −0.06
Cholesterol-free [2, 6]: 0.3615
Complete [2, 7]: 0.3017

COc1ccnc(C[S+]([O-])c2nc3cc(-n4cccc4)ccc3[nH]2)c1C (centres unmarked) [Ilaprazole]
Cholesterol-free media + simvastatin (0.04 μM) [1, 13]: 1.567
Complete Media [1, 14]: 1.084
Difference [1, 5]: −0.48
Difference ([2]; Complete minus Cholesterol-free, greater than 0 enhanced anti-cancer activity, about 0 neutral, below 0 antagonist): −0.14
Cholesterol-free ([2]; NCI-H292 cells, FDA drug library screen, cholesterol-free media without statin): 1.326
Complete [2, 4]: 1.19

CCCCCC(=O)O[C@]1(C(C)=O)CC[C@H]2[C@@H]3CCC4=CC(=O)CC[C@]4(C)[C@H]3CC[C@@]21C [Hydroxyprogesterone caproate]
Cholesterol-free media + simvastatin (0.04 μM) [1, 3]: 1.029
Complete Media [1, 4]: 0.8959
Difference [1, 5]: −0.13
Cholesterol-free [2, 15]: 1.133
Complete ([2]; NCI-H292 cells, complete media): 0.7393
Difference [2, 24]: −0.39

C(=C\c1ccccc1)/CN1CCN(C(c2ccccc2)c2ccccc2)CC1 [Cinnarizine]
Cholesterol-free media + simvastatin (0.04 μM) [1, 21]: 1.061
Difference [1, 23]: 0.11
Cholesterol-free [2, 15]: 1.344
Complete ([2]; NCI-H292 cells, complete media): 0.9213
Difference [2, 24]: −0.42

O=C1Cc2cc(CCN3CCN(c4nsc5ccccc45)CC3)c(Cl)cc2N1 [Ziprasidone]
Cholesterol-free media + simvastatin (0.04 μM) [1, 21]: 0.9155
Complete Media [1, 22]: 0.9832
Difference [1, 23]: 0.07
Difference [2, 16]: −0.52
Cholesterol-free [2, 17]: 1.408
Complete [2, 18]: 0.89

CC1=C(C/C=C(\C)CCC[C@H](C)CCC[C@H](C)CCCC(C)C)C(=O)c2ccccc2C1=O [Vitamin K1]
Cholesterol-free media + simvastatin (0.04 μM) [1, 13]: 1.062
Complete Media [1, 14]: 0.6359
Difference [1, 5]: −0.43
Cholesterol-free [2, 6]: 0.9273
Complete [2, 7]: 1.412
Difference [2, 8]: 0.48

C[C@@H]1NC(=O)[C@@H]2CCCN2C(=O)[C@H](CC(N)=O)NC(=O)[C@@H]2CSSC[C@H](N)C(=O)N[C@H]3CSSC[C@H](NC1=O)C(=O)N[C@@H]([C@@H](C)O)C(=O)NCC(=O)N[C@H](C(=O)N[C@@H](Cc1ccc(O)cc1)C(=O)O)CSSC[C@H](NC(=O)[C@H](Cc1ccc(O)cc1)NC(=O)[C@H](CCC(=O)O)NC3=O)C(=O)N2 [Linaclotide] (HELM PEPTIDE1{C.C.E.Y.C.C.N.P.A.C.T.G.C.Y}$PEPTIDE1,PEPTIDE1,1:R3-6:R3|PEPTIDE1,PEPTIDE1,2:R3-10:R3|PEPTIDE1,PEPTIDE1,5:R3-13:R3$$$V2.0)
Cholesterol-free media + simvastatin (0.04 μM) [1, 3]: 0.9562
Complete Media [1, 4]: 0.8554
Difference [1, 27]: −0.10
Cholesterol-free [2, 6]: 1.326
Complete [2, 7]: 1.765
Difference [2, 28]: 0.44

Medroxyprogesterone
Cholesterol-free media + simvastatin (0.04 μM) [1, 3]: 0.8858
Complete Media [1, 4]: 1.173
Difference [1, 19]: 0.29
Difference [2, 20]: −0.03
Complete [2, 7]: 0.9783

Cc1ncc(COP(=O)(O)O)c(C)c1O [4-Deoxypyridoxine 5′-phosphate]
Cholesterol-free media + simvastatin (0.04 μM) [1, 25]: 1.284
Complete Media [1, 26]: 1.065
Difference [1, 27]: −0.22
Cholesterol-free [2, 6]: 0.7389
Difference [2, 28]: 0.41

O=c1ccc2ccccc2o1 [Coumarin]
Cholesterol-free media + simvastatin (0.04 μM) [1, 9]: 0.8441
Complete Media [1, 10]: 0.7948
Difference [1, 11]: −0.05
Cholesterol-free [2, 6]: 0.9742
Complete [2, 7]: 1.716
Difference [2, 8]: 0.74
